# Measured values published in US11884675B2, “Heterocyclic compounds as triggering receptor expressed on myeloid cells 2 agonists and methods of use” (AMGEN INC., priority 2020, dated 2024).
# Target: hTREM2 (Homo sapiens, UniProt Q9NZC2)
# Experiment: TREM2 agonist potency by Syk phosphorylation (AlphaLisa) in HEK293T-hTREM2 cells, used for Examples 306-429
# Format: cell-based
# Parameters: expressed in transfected cells; host or cells: HEK293T (HEK293T-hTREM2 cells)
# Settings: HEK293 Cells
# In short: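 HEK293T cells expressing human TREM2 and DAP12, plated 20-24 h before, were exposed to compounds for 45 min at room temperature, then lysed. Phospho-Syk read by AlphaLisa; % activation from a standard curve and EC50 from a four-parameter log(agonist) fit.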
# Sequence of hTREM2 (Q9NZC2 19-230): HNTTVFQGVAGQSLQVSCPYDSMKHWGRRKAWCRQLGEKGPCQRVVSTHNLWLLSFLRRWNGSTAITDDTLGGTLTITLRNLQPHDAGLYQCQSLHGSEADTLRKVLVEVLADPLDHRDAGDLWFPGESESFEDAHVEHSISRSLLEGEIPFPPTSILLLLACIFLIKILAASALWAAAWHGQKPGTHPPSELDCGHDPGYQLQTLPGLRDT
# Sequence of hTREM2 (O43914 22-113 partner): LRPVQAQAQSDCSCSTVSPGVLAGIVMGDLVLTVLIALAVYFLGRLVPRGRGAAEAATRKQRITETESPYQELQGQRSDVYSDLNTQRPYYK
row,EC50 [nM],SMILES
1,≤ 50,"Cc1nc2nc(N3C[C@@H](c4cnn(C5CC5)c4)O[C@@H](C)C3)nc(C34CC(C(F)(F)F)(C3)C4)c2nc1C [Example 410, (2R,6S)-2-(1-cyclopropyl-1H-pyrazol-4-yl)-4-(6,7-dimethyl-4-(3-(trifluoromethyl)bicyclo[1.1.1]pentan-1-yl)pteridin-2-yl)-6-methylmorpholine]"
2,≤ 50,"Cc1nc2nc(N3C[C@@H](C)O[C@@H](c4cnn(C5CC5)c4)C3)nc(C34CC(C(F)(F)F)(C3)C4)c2nc1C [Example 411, (2S,6R)-2-(1-cyclopropyl-1H-pyrazol-4-yl)-4-(6,7-dimethyl-4-(3-(trifluoromethyl)bicyclo[1.1.1]pentan-1-yl)pteridin-2-yl)-6-methylmorpholine]"
3,50 to 500,"Cc1nc2nc([C@@H]3CCO[C@@H](c4cnn(C5CC5)c4)C3)nc(-c3ccc(C(F)(F)F)cc3F)c2nc1C [Example 412, 2-((2R,4R)-2-(1-cyclopropyl-1H-pyrazol-4-yl)tetrahydro-2H-pyran-4-yl)-4-(2-fluoro-4-(trifluoromethyl)phenyl)-6,7-dimethylpteridine]"
4,≤ 50,"Cc1nc2nc([C@H]3CCO[C@@H](c4cnn(C5CC5)c4)C3)nc(-c3ccc(C(F)(F)F)cc3F)c2nc1C [Example 413, 2-((2R,4S)-2-(1-cyclopropyl-1H-pyrazol-4-yl)tetrahydro-2H-pyran-4-yl)-4-(2-fluoro-4-(trifluoromethyl)phenyl)-6,7-dimethylpteridine]"
5,≤ 50,"Cc1ccc2c(-c3ccc(Cl)cc3F)nc([C@H]3C[C@@H](C)O[C@@H](c4cnn(C5CC5)c4)C3)nc2n1 [Example 414, 4-(4-chloro-2-fluorophenyl)-2-((2R,4S,6R)-2-(1-cyclopropyl-1H-pyrazol-4-yl)-6-methyltetrahydro-2H-pyran-4-yl)-7-methylpyrido[2,3-d]pyrimidine]"
6,50 to 500,"Cc1cnc2c(-c3ccc(F)cc3F)nc([C@H]3C[C@@H](C)O[C@@H](c4cnn(C5CC5)c4)C3)nc2n1 [Example 415, 2-((2R,4S,6R)-2-(1-cyclopropyl-1H-pyrazol-4-yl)-6-methyltetrahydro-2H-pyran-4-yl)-4-(2,4-difluorophenyl)-7-methylpteridine]"
7,50 to 500,"Cc1ccc2c(-c3ccc(F)cc3F)nc([C@H]3C[C@@H](C)O[C@@H](c4cnn(C5CC5)c4)C3)nc2n1 [Example 416, 2-((2R,4S,6R)-2-(1-cyclopropyl-1H-pyrazol-4-yl)-6-methyltetrahydro-2H-pyran-4-yl)-4-(2,4-difluorophenyl)-7-methylpyrido[2,3-d]pyrimidine]"
8,50 to 500,"Cc1cnc2c(-c3ccc(F)cc3F)nc([C@H]3C[C@@H](C)O[C@@H](c4cnn(C5CC5)c4)C3)cc2n1 [Example 417, 7-((2R,4S,6R)-2-(1-cyclopropyl-1H-pyrazol-4-yl)-6-methyltetrahydro-2H-pyran-4-yl)-5-(2,4-difluorophenyl)-2-methylpyrido[3,4-b]pyrazine]"
9,≤ 50,"Cc1cnc2c(-c3ccc(F)cc3F)nc(N3C[C@@H](C)O[C@@H](c4cnn(C5CC5)c4)C3)nc2n1 [Example 420, (2S,6R)-2-(1-cyclopropyl-1H-pyrazol-4-yl)-4-(4-(2,4-difluorophenyl)-7-methylpteridin-2-yl)-6-methylmorpholine]"
10,500 to 3000,"Cc1cnc2c(C34CC(C)(C3)C4)nc([C@H]3C[C@@H](C)O[C@@H](c4cnn(C5CC5)c4)C3)cc2n1 [Example 421, 7-((2R,4S,6R)-2-(1-cyclopropyl-1H-pyrazol-4-yl)-6-methyltetrahydro-2H-pyran-4-yl)-2-methyl-5-(3-methylbicyclo[1.1.1]pentan-1-yl)pyrido[3,4-b]pyrazine]"
11,50 to 500,"Cc1cnc2c(-c3ccc(Cl)cc3F)nc(N3C[C@@H](c4cnn(C5CC5)c4)O[C@@H](C)C3)nc2n1 [Example 423, (2R,6S)-4-(4-(4-chloro-2-fluorophenyl)-7-methylpteridin-2-yl)-2-(1-cyclopropyl-1H-pyrazol-4-yl)-6-methylmorpholine]"
12,≤ 50,"Cc1nc2nc(N3C[C@@H](c4cnn(C5CC5)c4)O[C@@H](C)C3)nc(-c3ccc(Cl)cc3F)c2nc1C [Example 424, (2R,6S)-4-(4-(4-chloro-2-fluorophenyl)-6,7-dimethylpteridin-2-yl)-2-(1-cyclopropyl-1H-pyrazol-4-yl)-6-methylmorpholine]"
13,≤ 50,"Cc1nc2nc(N3C[C@@H](C)O[C@@H](c4cnn(C5CC5)c4)C3)nc(-c3ccc(Cl)cc3F)c2nc1C [Example 425, (2S,6R)-4-(4-(4-chloro-2-fluorophenyl)-6,7-dimethylpteridin-2-yl)-2-(1-cyclopropyl-1H-pyrazol-4-yl)-6-methylmorpholine]"
14,≤ 50,"Cc1nc2nc(N3C[C@@H](c4cnn(C5CC5)c4)O[C@@H](C)C3)nc(-c3ccc(F)cc3F)c2nc1C [Example 426, (2R,6S)-2-(1-cyclopropyl-1H-pyrazol-4-yl)-4-(4-(2,4-difluorophenyl)-6,7-dimethylpteridin-2-yl)-6-methylmorpholine]"
15,≤ 50,"Cc1nc2nc(N3C[C@@H](C)O[C@@H](c4cnn(C5CC5)c4)C3)nc(-c3ccc(F)cc3F)c2nc1C [Example 427, (2S,6R)-2-(1-cyclopropyl-1H-pyrazol-4-yl)-4-(4-(2,4-difluorophenyl)-6,7-dimethylpteridin-2-yl)-6-methylmorpholine]"
16,50 to 500,"Cc1ccc2c(C34CC(C(C)C)(C3)C4)nc([C@H]3CCO[C@@H](c4cnn(C5CC5)c4)C3)nc2n1 [Example 428, 2-((2R,4S)-2-(1-cyclopropyl-1H-pyrazol-4-yl)tetrahydro-2H-pyran-4-yl)-4-(3-isopropylbicyclo[1.1.1]pentan-1-yl)-7-methylpyrido[2,3-d]pyrimidine]"
17,500 to 3000,"Cc1ccc2c(C(C)C)nc([C@H]3C[C@@H](C)O[C@@H](c4cnn(C5CC5)c4)C3)nc2n1 [Example 429, 2-((2R,4S,6R)-2-(1-cyclopropyl-1H-pyrazol-4-yl)-6-methyltetrahydro-2H-pyran-4-yl)-4-isopropyl-7-methylpyrido[2,3-d]pyrimidine]"
